Test results as given in patent US20080206761A1, “Ex Vivo Gene Expression in Whole Blood as a Model of Assessment of Individual Variation to Dietary Supplements” (priority 2005, published 2008).

Experiments:
Type in all cases: cell-based, human
[1] = system: IL-2 mRNA; assay: PHA-induced IL-2 mRNA expression in heparinized whole blood ex vivo; settings: supplement 30 min, concentrations per footnote
Experimental: (§1) In this embodiment, phytohemagglutinin-induced gene expression of interleukin-2 (IL-2), interleukin-4 (IL-4), and tumor necrosis factor-α (TNF-α) were quantitated in the following manner. Fifty μL of heparinized whole blood was incubated with various dietary supplements for a period of 30 minutes. The following supplements were employed: vitamins A, C, and D, epigallocatechin gallate (from green tea), genistein (from soy), and curcumin (from the spice turmeric). Vitamin A is known to stimulate the immune system. […] Vitamin D appears to have protective effects against certain cancers. Epigallocatechin gallate is a powerful antioxidant, appears to reduce the multidrug resistance found in cancer cells, and preferentially induces apoptosis in neoplastic cells. Genistein has been found in some studies to have anticarcinogenic activity; possible mechanisms of action include upregulation of apoptosis, inhibition of angiogenesis, inhibition of DNA topoisomerase II and inhibition of protein tyrosine kinases. Curcumin has proapoptotic effects in neoplastic cells and interferes with the activity of the transcription factor NF-κB, which is often highly overexpressed in such cells.
(§2) After incubation with the dietary supplement, 100 μg/mL phytohemagglutinin (PHA) was added and incubation was continued for an additional 2 hours at 37° C. The concentration of each dietary supplement (see Table I, note) was slightly higher than reported blood levels. Then mRNA was purified, cDNA was synthesized, and the levels of IL-2, IL-4, and TNF-α were quantitated by TaqMan real time polymerase chain reaction (PCR) (see Holland, et al., “Detection of specific polymerase chain reaction product by utilizing the 5′ to 3′ exonuclease activity of Thermus aquaticus DNA polymerase,” Proc Natl Acad Sci USA 1991; 88: 7276-80), as described below.
(§3) The mRNA and cDNA were prepared from the whole blood that was exposed to the dietary components, as well as the whole blood which remained unexposed. In brief, home-made 96-well filterplates were placed over collection plates, and 150 μl 5 mM Tris, pH 7.4, was applied. Following centrifugation at 120×g for 1 min at 4° C., 50 μl of blood samples were applied to each well and immediately centrifuged at 120×g for 2 min at 4° C., followed by washing of each well with 300 μl PBS once with centrifugation at 2000×g for 5 min at 4° C. Then, 60 μl stock lysis buffer, containing for example 0.5% N-Lauroylsarcosine, 4×SSC, 10 mM Tris HCl, pH 7.4, 1 mM EDTA, 0.1% IGEPAL CA-630, and 1.791 M guanidine thiocyanate, supplemented with 1% 2-mercaptoethanol (Bio Rad, Hercules, Calif., USA), 0.5 mg/ml proteinase K (Pierce, Rockford, Ill., USA), 0.1 mg/ml salmon sperm DNA (5 Prime Eppendorf/Brinkmann, Westbury, N.Y., USA), 0.1 mg/ml E. coli tRNA (Sigma), a cocktail of 10 mM each of the specific reverse primers shown in Table 2, and standard RNA34 oligonucleotides, were applied to the filterplates, followed by incubation at 37° C. for 10 min. The filterplates were then placed over oligo(dT)-immobilized microplates (GenePlate, RNAture), and centrifuged at 2000×g for 5 min at 4° C. Following overnight storage at 4° C., the microplates were washed with 100 μl plain lysis buffer 3 times, followed by 150 μl of wash buffer (0.5 M NaCl, 10 mM Tris, pH 7.4, 1 mM EDTA) 3 times at 4° C. The cDNA was directly synthesized in each well by adding 30 μl of buffer containing 1×RT-buffer, 1.25 mM each of dNTP, 4 units rRNasin, and 80 units of MMLV reverse transcriptase (Promega) (without primers), and incubation at 37° C. for 2 hours. The specific primer-primed cDNA existed in solution, and oligo(dT)-primed cDNA stayed immobilized in the microplate. […]

[2] = system: IL-4 mRNA; assay: PHA-induced IL-4 mRNA expression in heparinized whole blood ex vivo; settings: for ΔΔCt (mean ± standard deviation, n = 3), IL-4 mRNA: supplement 30 min, then 100 μg/mL PHA 2 h, concentrations per footnote
Experimental: as §1, §2, §3

[3] = system: TNF-α mRNA; assay: PHA-induced TNF-α mRNA expression in heparinized whole blood ex vivo; settings: supplement 30 min, then 100 μg/mL PHA 2 h, concentrations per footnote
Experimental: as §1, §2, §3

**Q.** `CC1=C(/C=C/C(C)=C/C=C/C(C)=C/CO)C(C)(C)CCC1` [VA, vitamin A] was tested. Which “ΔΔCt (mean ± standard deviation, n = 3), IL-2 mRNA” value ([1]; Subject 1, then 100 μg/mL PHA 2 h 37° C., negative = increased expression) did it give?
**A.** −0.98 ± 0.04

**Q.** And the “ΔΔCt (mean ± standard deviation, n = 3), IL-2 mRNA” value ([1]; Subject 2, then 100 μg/mL PHA 2 h)?
**A.** −1.61 ± 0.32

**Q.** And the “ΔΔCt (mean ± standard deviation, n = 3), IL-2 mRNA” value ([1]; Subject 3, then 100 μg/mL PHA 2 h)?
**A.** 0.49 ± 0.33

**Q.** And the “ΔΔCt (mean ± standard deviation, n = 3), IL-2 mRNA” value ([1]; Subject 4, then 100 μg/mL PHA 2 h)?
**A.** −0.29 ± 0.21

**Q.** And the “ΔΔCt (mean ± standard deviation, n = 3), IL-2 mRNA” value ([1]; Subject 5, then 100 μg/mL PHA 2 h)?
**A.** −1.16 ± 0.02

**Q.** And the “ΔΔCt (mean ± standard deviation, n = 3), IL-2 mRNA” value ([1]; Subject 6, then 100 μg/mL PHA 2 h)?
**A.** −0.26 ± 0.20

**Q.** What about the “ΔΔCt (mean ± standard deviation, n = 3), IL-2 mRNA” value ([1]; Subject 7, then 100 μg/mL PHA 2 h) of the same compound?
**A.** −0.66 ± 0.35

**Q.** What about the “ΔΔCt (mean ± standard deviation, n = 3), IL-4 mRNA” value ([2]; Subject 1) of the same compound?
**A.** −2.14 ± 0.08

**Q.** And the “ΔΔCt (mean ± standard deviation, n = 3), IL-4 mRNA” value ([2]; Subject 2)?
**A.** −1.56 ± 0.34

**Q.** What about the “ΔΔCt (mean ± standard deviation, n = 3), IL-4 mRNA” value ([2]; Subject 3) of the same compound?
**A.** −0.15 ± 0.40

**Q.** What about the “ΔΔCt (mean ± standard deviation, n = 3), IL-4 mRNA” value ([2]; Subject 4) of the same compound?
**A.** −0.98 ± 0.41

**Q.** And the “ΔΔCt (mean ± standard deviation, n = 3), IL-4 mRNA” value ([2]; Subject 5)?
**A.** −1.24 ± 0.13

**Q.** What about the “ΔΔCt (mean ± standard deviation, n = 3), IL-4 mRNA” value ([2]; Subject 6) of the same compound?
**A.** −0.65 ± 0.09

**Q.** What about the “ΔΔCt (mean ± standard deviation, n = 3), IL-4 mRNA” value ([2]; Subject 7) of the same compound?
**A.** −1.15 ± 0.39

**Q.** And the “effect on PHA-induced IL-4 expression, in words” value ([2]; summary over 7 subjects of Table I)?
**A.** enhanced IL-4 expression, with 1-3 exceptions

**Q.** What about the “ΔΔCt (mean ± standard deviation, n = 3), TNFα mRNA” value ([3]; Subject 1) of the same compound?
**A.** −1.56 ± 0.11

**Q.** What about the “ΔΔCt (mean ± standard deviation, n = 3), TNFα mRNA” value ([3]; Subject 2) of the same compound?
**A.** −0.57 ± 0.94

**Q.** And the “ΔΔCt (mean ± standard deviation, n = 3), TNFα mRNA” value ([3]; Subject 3)?
**A.** 0.51 ± 0.03

**Q.** What about the “ΔΔCt (mean ± standard deviation, n = 3), TNFα mRNA” value ([3]; Subject 4) of the same compound?
**A.** −0.08 ± 0.29

**Q.** What about the “ΔΔCt (mean ± standard deviation, n = 3), TNFα mRNA” value ([3]; Subject 5) of the same compound?
**A.** −0.76 ± 0.34

**Q.** What about the “ΔΔCt (mean ± standard deviation, n = 3), TNFα mRNA” value ([3]; Subject 6) of the same compound?
**A.** −0.50 ± 0.10

**Q.** And the “ΔΔCt (mean ± standard deviation, n = 3), TNFα mRNA” value ([3]; Subject 7)?
**A.** −1.11 ± 0.24
